Read-outs that look alike come from different tables or passages of the source.
Key:
PC3 cells [1] = experiment: Cell cycle distribution (flow cytometry); format: cell-based, human
Experimental: (§1) Cells ([…], PC3 and HT29) were seeded at a density of 1.0×10^6 cells/3 ml medium per 60 mm dish. After 24 h attachment, cells were exposed to Compound 25 at the indicated concentrations for 2 h under either normoxia (air) or anoxia (nitrogen). Cells were washed twice, and incubated for an additional 22 h in fresh medium. Cells were trypsinized, centrifuged, and fixed in 75% ethanol at least for 24 h at −20° C. Cell cycle distribution was determined using Guava Cell Cycle reagent (Guava, Hayward, Calif.) by flow cytometry (Guava, Hayward, Calif.).

HT29 cells = experiment: Cell cycle distribution (flow cytometry); format: cell-based, human
Experimental: as §1

[2] = In vivo plasma or tumor pharmacokinetics of Compound 25 (Table 4); design: species or system CD-1 mice (nude mice where noted)
PC3 cells [3] = experiment: Clonogenic assay - oxygen dependence; conditions: Homo sapiens
[4] = tested on: mouse (MLM) liver microsomal proteins; format: in vitro ADME; conditions: Table 1, first study, 5 μM
ACHN cells = experiment: Antiproliferation assay (Alamar Blue), anoxia vs air; conditions: Homo sapiens, 2 h
HT29 monolayer = experiment: Clonogenic survival of monolayer cells (Example 35); format: cell-based; conditions: Homo sapiens
HCT116 cells = experiment: Multilayered cell culture (MCC) assay, inhibition of BrdU incorporation; format: cell-based; conditions: for IC50: Homo sapiens
Experimental: MCCs were incubated with oxygenated media (20% O2 & 5% O2) or hypoxic media (approximately 0% O2) and the test compound was exposed from one side (exposed surface, normoxic side) while the other side was temporarily closed off (far side, hypoxic side). When MCC's are incubated in media at 20% O2 or 5% O2 a gradient in oxygen develops from the surface exposed to the media towards the far surface of the culture. The furthest 50 μm of tissue becomes depleted of oxygen. The extent of O2 depletion is greater with 5% than the 20% O2 gassed media; incubation with 5% O2 reflects the in vivo situation most closely. Incubating MCCs with media at 0% O2 models perfusion limited hypoxia, where tumor blood vessels become completely depleted of oxygen and test compound must penetrate extensive distances to reach all cells. This situation therefore poses a greater barrier to drug penetration, if binding of activated drug acts to limit its penetration.
MCC based experiments were carried out with media gassed with 0, 5 or 20% O2 for 45 minutes prior to and during incubation with the test compound. HCT116 cells were grown to a thickness of 150 μm on a solid support and one side of the culture was clamped off to develop diffusion limited hypoxia. […] The cultures were incubated for a second hour in fresh media at 20% O2 and removed from the apparatus and returned to a normal growth chamber, where media flows over both sides of the MCC. Cultures were incubated for 24 hours prior to BrdUrd labeling and subsequent cryosectioning. BrdUrd labeling on the exposed and far sides of the MCC were analyzed using immunohistochemical staining, microscope imaging and computer image analysis to assess the effect of Compound 25 on cell proliferation.

[5] = 50 mg/kg i.v., 30% PEG/70% Saline, CD-1 mice
[6] = CD-1, mouse, plasma, ip, 25 mg/kg, 25 mg/kg i.p., 10% PEG, CD-1 mice
[7] = CD-1, mouse, plasma, ip, 50 mg/kg, 50 mg/kg i.p., Saline, CD-1 mice
[8] = CD-1, mouse, plasma, iv, 50 mg/kg, 50 mg/kg i.v., 30% PEG/70% Saline, CD-1 mice
[9] = CD-1, mouse, plasma, po, 50 mg/kg, 50 mg/kg p.o., Saline, CD-1 mice
[10] = CD-1, mouse, plasma, po, 100 mg/kg, 100 mg/kg p.o., Saline, CD-1 mice
[11] = nude, mouse, plasma, ip, 150 mg/kg, 150 mg/kg i.p., Saline, nude mice with H460 tumor
[12] = nude, mouse, tumor, ip, 150 mg/kg, 150 mg/kg i.p., Saline, nude mice with H460 tumor, Tumor PK

In the case of Cn1c(COP(=O)(NCCBr)NCCBr)cnc1[N+](=O)[O-] [Compound 25], the “Cell cycle G0/G1” value (PC3 cells [1]; 0.0005 μM, Air) is reported as 55, the “Cell cycle G2/M” value (PC3 cells [1]; 0.0005 μM, Air) is reported as 32 and the “Cell cycle S” value (PC3 cells [1]; 0.0005 μM, Air) is reported as 12. The “Cell cycle G0/G1” value (PC3 cells [1]; 0.0005 μM, Nitrogen) was 59, the “Cell cycle G2/M” value (PC3 cells [1]; 0.0005 μM, Nitrogen) was 31 and the “Cell cycle S” value (PC3 cells [1]; 0.0005 μM, Nitrogen) was 10. The “Cell cycle G0/G1” value (PC3 cells [1]; 0.005 μM, Air) was 52, the “Cell cycle G2/M” value (PC3 cells [1]; 0.005 μM, Air) was 34 and the “Cell cycle S” value (PC3 cells [1]; 0.005 μM, Air) was 13. For the same compound, the “Cell cycle G0/G1” value (PC3 cells [1]; 0.005 μM, Nitrogen) was 56, the “Cell cycle G2/M” value (PC3 cells [1]; 0.005 μM, Nitrogen) was 32 and the “Cell cycle S” value (PC3 cells [1]; 0.005 μM, Nitrogen) was 11. For the same compound, the “Cell cycle G0/G1” value (PC3 cells [1]; 0.05 μM, Air) was 55, the “Cell cycle G2/M” value (PC3 cells [1]; 0.05 μM, Air) was 33 and the “Cell cycle S” value (PC3 cells [1]; 0.05 μM, Air) was 12. For the same compound, the “Cell cycle G0/G1” value (PC3 cells [1]; 0.05 μM, Nitrogen) was 43, the “Cell cycle G2/M” value (PC3 cells [1]; 0.05 μM, Nitrogen) was 44 and the “Cell cycle S” value (PC3 cells [1]; 0.05 μM, Nitrogen) was 12. For the same compound, the “Cell cycle G0/G1” value (PC3 cells [1]; 0.5 μM, Air) was 55, the “Cell cycle G2/M” value (PC3 cells [1]; 0.5 μM, Air) was 32 and the “Cell cycle S” value (PC3 cells [1]; 0.5 μM, Air) was 13. For the same compound, the “Cell cycle G0/G1” value (PC3 cells [1]; 0.5 μM, Nitrogen) was 21, the “Cell cycle G2/M” value (PC3 cells [1]; 0.5 μM, Nitrogen) was 46 and the “Cell cycle S” value (PC3 cells [1]; 0.5 μM, Nitrogen) was 33. For the same compound, the “Cell cycle G0/G1” value (PC3 cells [1]; 5 μM, Air) was 55, the “Cell cycle G2/M” value (PC3 cells [1]; 5 μM, Air) was 32 and the “Cell cycle S” value (PC3 cells [1]; 5 μM, Air) was 12. The “Cell cycle G0/G1” value (PC3 cells [1]; 5 μM, Nitrogen) was 35, the “Cell cycle G2/M” value (PC3 cells [1]; 5 μM, Nitrogen) was 26 and the “Cell cycle S” value (PC3 cells [1]; 5 μM, Nitrogen) was 38. The “Cell cycle G0/G1” value (HT29 cells; 0.005 μM, Air) was 52, the “Cell cycle G2/M” value (HT29 cells; 0.005 μM, Air) was 35 and the “Cell cycle S” value (HT29 cells; 0.005 μM, Air) was 12. The “Cell cycle G0/G1” value (HT29 cells; 0.005 μM, Nitrogen) was 46, the “Cell cycle G2/M” value (HT29 cells; 0.005 μM, Nitrogen) was 40 and the “Cell cycle S” value (HT29 cells; 0.005 μM, Nitrogen) was 14. For the same compound, the “Cell cycle G0/G1” value (HT29 cells; 0.05 μM, Air) was 50, the “Cell cycle G2/M” value (HT29 cells; 0.05 μM, Air) was 35 and the “Cell cycle S” value (HT29 cells; 0.05 μM, Air) was 15. For the same compound, the “Cell cycle G0/G1” value (HT29 cells; 0.05 μM, Nitrogen) was 37, the “Cell cycle G2/M” value (HT29 cells; 0.05 μM, Nitrogen) was 52 and the “Cell cycle S” value (HT29 cells; 0.05 μM, Nitrogen) was 11. For the same compound, the “Cell cycle G0/G1” value (HT29 cells; 0.5 μM, Air) was 48, the “Cell cycle G2/M” value (HT29 cells; 0.5 μM, Air) was 37 and the “Cell cycle S” value (HT29 cells; 0.5 μM, Air) was 14. For the same compound, the “Cell cycle G0/G1” value (HT29 cells; 0.5 μM, Nitrogen) was 8, the “Cell cycle G2/M” value (HT29 cells; 0.5 μM, Nitrogen) was 84 and the “Cell cycle S” value (HT29 cells; 0.5 μM, Nitrogen) was 8. For the same compound, the “Cell cycle G0/G1” value (HT29 cells; 5 μM, Air) was 47, the “Cell cycle G2/M” value (HT29 cells; 5 μM, Air) was 39 and the “Cell cycle S” value (HT29 cells; 5 μM, Air) was 13. The “Cell cycle G0/G1” value (HT29 cells; 5 μM, Nitrogen) was 14, the “Cell cycle G2/M” value (HT29 cells; 5 μM, Nitrogen) was 36 and the “Cell cycle S” value (HT29 cells; 5 μM, Nitrogen) was 50. The AUC [2, 5] was 177 µg·h/mL, the half-life [2, 5] was 10.1 min and the Cmax [2, 6] was 6330 ng/mL. The Tmax [2, 6] was 45 min, the AUC ([2]; CD-1, mouse, plasma, ip, 25 mg/kg, 25 mg/kg i.p., 10% PEG, CD-1 mice, read-out: AUC) was 247 µg·h/mL and the half-life ([2]; CD-1, mouse, plasma, ip, 25 mg/kg, 25 mg/kg i.p., 10% PEG, CD-1 mice, read-out: Half-life) was 4.43 min. For the same compound, the AUC ([2]; CD-1, mouse, plasma, ip, 50 mg/kg, 50 mg/kg i.p., 30% PEG/70% Saline, CD-1 mice, read-out: AUC) was 438 µg·h/mL, the half-life ([2]; CD-1, mouse, plasma, ip, 50 mg/kg, 50 mg/kg i.p., 30% PEG/70% Saline, CD-1 mice, read-out: Half-life) was 11 min and the Cmax [2, 7] was 38500 ng/mL. It also gave a Tmax [2, 7] of 5 min, an AUC ([2]; CD-1, mouse, plasma, ip, 50 mg/kg, 50 mg/kg i.p., Saline, CD-1 mice, read-out: AUC) of 635 µg·h/mL and a half-life ([2]; CD-1, mouse, plasma, ip, 50 mg/kg, 50 mg/kg i.p., Saline, CD-1 mice, read-out: Half-life) of 7.91 min. It also gave a Cmax [2, 8] of 27500 ng/mL, a Tmax [2, 8] of 2 min and an AUC ([2]; CD-1, mouse, plasma, iv, 50 mg/kg, 50 mg/kg i.v., 30% PEG/70% Saline, CD-1 mice, read-out: AUC) of 325 µg·h/mL. For the same compound, the half-life ([2]; CD-1, mouse, plasma, iv, 50 mg/kg, 50 mg/kg i.v., 30% PEG/70% Saline, CD-1 mice, read-out: Half-life) was 6.7 min, the Cmax [2, 9] was 930 ng/mL and the Tmax [2, 9] was 15 min. It also gave an AUC ([2]; CD-1, mouse, plasma, po, 50 mg/kg, 50 mg/kg p.o., Saline, CD-1 mice, read-out: AUC) of 40.4 µg·h/mL, a half-life ([2]; CD-1, mouse, plasma, po, 50 mg/kg, 50 mg/kg p.o., Saline, CD-1 mice, read-out: Half-life) of 25.7 min and a Cmax [2, 10] of 15800 ng/mL. The Tmax [2, 10] was 15 min, the AUC ([2]; CD-1, mouse, plasma, po, 100 mg/kg, 100 mg/kg p.o., Saline, CD-1 mice, read-out: AUC) was 784 µg·h/mL and the half-life ([2]; CD-1, mouse, plasma, po, 100 mg/kg, 100 mg/kg p.o., Saline, CD-1 mice, read-out: Half-life) was 95.2 min. The bioavailability ([2]; mouse, plasma, po, 50 mg/kg p.o., Saline, CD-1 mice, read-out: F (Bioavailability)) was 13.6%, the Cmax [2, 11] was 90100 ng/mL and the Tmax [2, 11] was 5 min. The AUC ([2]; nude, mouse, plasma, ip, 150 mg/kg, 150 mg/kg i.p., Saline, nude mice with H460 tumor, plasma, read-out: AUC) was 1240 µg·h/mL, the half-life ([2]; nude, mouse, plasma, ip, 150 mg/kg, 150 mg/kg i.p., Saline, nude mice with H460 tumor, plasma, read-out: Half-life) was 58.7 min and the Cmax [2, 12] was 3380 ng/mL. For the same compound, the Tmax [2, 12] was 15 min, the AUC ([2]; nude, mouse, tumor, ip, 150 mg/kg, 150 mg/kg i.p., Saline, nude mice with H460 tumor, Tumor PK, read-out: AUC) was 307 µg·h/mL and the IC90 (PC3 cells [3]; PC-3, read-out: IC90 PC3 Air) was 50000 nM. The IC90 (PC3 cells [3]; PC-3, read-out: IC90 PC3 N2) was 300 nM, the “Metabolic stability (% at 30 min) MLM” value [4] was 89% and the IC50 (ACHN cells; read-out: IC50 ACHN Air) was 62000 nM. The IC50 (ACHN cells; read-out: IC50 ACHN Anoxia) was 200 nM, the IC90 (HT29 monolayer; HT-29, read-out: IC90 HT29 Monolayer 0.6% O2) was 3000 nM and the IC90 (HT29 monolayer; HT-29, read-out: IC90 HT29 Monolayer Air) was 40000 nM. The IC90 (HT29 monolayer; HT-29, read-out: IC90 HT29 Monolayer N2) was 200 nM, the “fold reduction in exposure to the hypoxic side under 0% O2 relative to 5% O2” value (HCT116 cells; 0% O2 vs 5% O2) was “Approximately 3 fold” and the “fold more effective at inhibiting BrdU incorporation on the hypoxic side compared to the normoxic side” value (HCT116 cells; 5% O2) was 10 fold. The “fold less compound required on the far (hypoxic) side compared to the exposed (normoxic) side” value (HCT116 cells; 20% O2) was 5 fold, the IC50 (HCT116 cells; HCT-116, read-out: IC50 (BrdU), Hypoxic side, 5% O2) was 700 nM and the IC50 (HCT116 cells; HCT-116, read-out: IC50 (BrdU), Hypoxic side, 20% O2) was 2600 nM. It also gave an IC50 (HCT116 cells; HCT-116, read-out: IC50 (BrdU), Normoxic side, 5% O2) of 8000 nM, an IC50 (HCT116 cells; HCT-116, read-out: IC50 (BrdU), Normoxic side, 20% O2) of over 10000 nM and an IC50 (HCT116 cells; HCT-116, read-out: IC50 (inhibit BrdU incorporation by 50%), Hypoxic side, 0% O2) of about 1100 nM. The IC50 (HCT116 cells; HCT-116, read-out: IC50 (BrdU), Normoxic side, 0% O2) was about 1700 nM.
